In the NIST ThermoML archive (doi:10.1016/j.fluid.2011.01.012) one finds mass density, Normal boiling temperature and refractive index data, which are given here for 4 compounds.

As a reminder, the mass density is the mass of a sample divided by its volume. For orientation: refractive index means a measure of how strongly the sample bends light.

For data set [1] the following is noted: Liquid; for mass density: 293.15 K, 101.33 kPa, Vibrating tube method; for Normal boiling temperature: Fischer Boiling Piont Apparatus.
Data set [2] in a line: refractive index (Na D-line) (dimensionless). The conditions noted are these: 293.15 K; 101.33 kPa; Liquid; Standard Abbe refractometry.

Molecules are shown by their SMILES. Numbers after ± are expanded uncertainties.

For `CCOC(=O)CCC(=O)OCC` [diethyl butanedioate], in data set [1], the mass density was 1040.22 ± 0.36 kg/m3 and the Normal boiling temperature was determined as 217.7 ± 1 °C. In addition, the refractive index in data set [2] was 1.42014 ± 0.00039.

As to `CCOC(=O)CCCC(=O)OCC` [diethyl glutarate], in data set [1], the mass density was determined as 1022.04 ± 0.92 kg/m3 and the Normal boiling temperature amounted to 236.5 ± 1 °C. Moreover, the refractive index in data set [2] is reported as 1.42414 ± 0.00052.

Turning to `CCOC(=O)CCCCC(=O)OCC` [diethyl hexanedioate], in data set [1], the mass density is 1007.63 ± 0.34 kg/m3 and the Normal boiling temperature was determined as 245.1 ± 1 °C. The refractive index in data set [2] amounted to 1.42725 ± 0.00039.

On to `O` [water], for which, in data set [1], the mass density is listed as 999.9 ± 0.24 kg/m3 and the Normal boiling temperature was 100.1 ± 1 °C. Also, the refractive index in data set [2] stood at 1.3324 ± 0.00033.
